Read-outs that look alike come from different tables or passages of the source.
What was measured:
[1] = tested on: rice blast Pyricularia oryzae; assay type: in vivo; conditions: soil and leaves, 7 days, controls less than 5%
[2] = tested on: vine downy mildew, Plasmopara viticola; experiment: Vine downy mildew control on vine plants (application to soil and leaves); assay type: in vivo; conditions: 2000 ppm, 12 days, controls less than 5%
Protocol: Aqueous acetone solutions of each of the compounds listed in the Table below, containing 2000 parts per million (ppm), together with 125 ppm of a suitable wetting agent, were applied to the soil surrounding the roots and leaves of vine plants having five fully expanded leaves.
The treated plants, together with controls treated with wetting agent alone, were inoculated 24 hours after the chemical application with an aqueous suspension of sporangia of the disease organism known as vine downy mildew, Plasmopara viticola.

[3] = tested on: potato blight Phytophthora infestans; assay type: in vivo; conditions: 5 days, controls less than 5%
[4] = tested on: Pythium ultimum; experiment: Fungal growth on the surface of soil infected with damping-off disease organism; assay type: in vivo; conditions: 300 ppm; 6 days, 25° C.; 0-8 scale (Examples 233, 234, 268)
Protocol: (§1) A one week old maize meal/sand culture of the damping-off disease organism Pythium ultimum was thoroughly mixed by hand with clean sterile John Innes No. 1 potting compost in the ratio of 3 kg culture to 12 liters of soil. The infected soil was then left for approximately 18 hours before use. Each of the compounds listed below was ground together with a wetting agent, Tween 20 (1% of final volume), until a solution or fine suspension was produced which was then diluted with distilled water to give 160 ml of solution containing 1500, 500, 150 or 50 ppm active ingredient. 15 ml aliquots of this solution were added to 75 g portions of the soil infected with Pythium ultimum which were contained in small plastic cartons, 60 mm diameter×55 mm high. Fifteen cabbage seeds, variety Flower of Spring, were placed in a circular depression in the treated infected soil, recovered, and the whole sealed with a plastic cap. The cartons were then placed in a constant temperature room at 25° C.±1° C. Four replications per treatment were made with one additional treatment where seeds were sown in soil which was chemically treated only, i.e. there was no infection. This latter treatment was included to measure the direct effect of the chemical on the germination of the seed. After six days the cartons were removed from the controlled temperature chamber and assessed for degree of fungal growth on the soil surface and percentage of seedling emergence. The results of both these assessments are expressed in a 0-8 scale as follows:
(§2) One week old maize meal/sand culture of the damping-off disease organism Pythium ultimum was thoroughly mixed by hand with clean sterile John Innes No. 1 potting compost in the ratio of 3 kg culture to 12 liters of soil. This infected soil was then left for approximately 18 hours before use. The compounds listed in the Table below were each ground with the wetting agent Tween 20 (1% of final volume), until a solution or fine suspension was produced, which was then diluted with distilled water to give 160 ml of solution containing 1500 or 500 parts per million (ppm) active ingredient. 15 ml aliquots of this solution were added to 75 g portions of the soil infected with Pythium ultimum which were contained in small plastic cartons, 60 mm diameter×55 mm high.
(§3) Fifteen cabbage seeds, variety Flower of Spring, were placed in a circular depression in the treated infected soil, recovered, and the whole sealed with a plastic cap. The cartons were then placed in a constant temperature room at 25° C.±1° C. Four replications per treatment were made, with one additional treatment where seeds were sown in soil which was chemically treated only, i.e. there was no infection. This latter treatment was included to measure the direct effect of the chemical on the germination of the seed.
(§4) After six days, the cartons were removed from the controlled temperature chamber and assessed for degree of fungal growth on the soil surface and percentage of seedling emergence. The results of both these assessments are expressed in a 0-8 scale as follows:
(§5) N-(2-oxopropyl)-3',4'-dimethyl-methanesulphonanilide was tested at a dose rate of 300 ppm in the test described in Examples 233 and 234. It gave a mycelial control score of 0 and a germination score of 3 whereas the untreated samples gave a score of 0 for both.

[5] = tested on: Pythium ultimum; experiment: Cabbage seedling emergence in soil infected with Pythium ultimum; assay type: in vivo, Pythium ultimum (on cabbage, variety Flower of Spring); conditions: 300 ppm; 6 days, 25° C.; 0-8 scale (Examples 233, 234, 268)
Protocol: as §1, §2, §3, §4, §5

[6] = tested on: barley powdery mildew Erysiphe graminis; experiment: Barley powdery mildew control on barley plants; assay type: in vivo; conditions: 2000 ppm; soil and leaves; 10 days; controls less than 5%

Compound: CCS(=O)(=O)N(CC(=O)C(C)(C)C)c1c(C)cccc1C [Example 212, N-2-oxo-3,3-dimethylbutyl-2',6'-dimethyl-ethanesulphonanilide]
- % Control, rice blast ([1]; 2000 ppm): 80%

Compound: Cc1cccc(Cl)c1N(CC1(C)OCCO1)S(C)(=O)=O [Example 230, N-[(2-methyl-1,3-dioxolan-2-yl)methyl]-2'-chloro-6'-methylmethanesulphonanilide]
- % Control Vine Downing Mildew [2]: 80%

Compound: CON=C(C)CN(c1c(C)cccc1C)S(C)(=O)=O [Example 249]
- % Control, rice blast ([1]; 500 ppm): 66%
- % Control, potato blight ([3]; 500 ppm): 74%

Compound: CC(=O)CN(c1ccc(C)c(C)c1)S(C)(=O)=O [Example 272, N-(2-oxopropyl)-3',4'-dimethylmethanesulphonanilide]
- Mycelial Control Score [4]: 0 (<20% inhibition)
- Germination Score [5]: 3 (45-54% inhibition)
- % Control, rice blast ([1]; 2000 ppm): 67%
- % Control, potato blight ([3]; 2000 ppm): 62%
- % Control, barley powdery mildew [6]: 99%
